# Measurements as given in article PMC7551771, “In-Depth In Silico Search for Cuttlefish (Sepia officinalis) Antimicrobial Peptides Following Bacterial Challenge of Haemocytes” (Marine Drugs, 2020).
# Where two headings read alike, the source gives them in different places. No end group written: not given here.
# How the values were obtained:
# [1] = tested on: Halomonas aquamarina (CIP 105454T); assay: Liquid growth inhibition assay (MIC/MBC); format: cell-based; details: Vreelandella aquamarina; HMB, starting OD600 0.001, 16 h, triplicate; interval [a]-[b]; '-' = not active
# Experimental: (§1) The minimal growth inhibitory concentrations (MICs) of synthetic peptides (Genecust) were evaluated on Vibrio alginolyticus (CIP 109819), V. splendidus (CIP 107715), V. aestuerianus (CIP 102971), V. anguillarum (CIP 64.14), V. parahaemolyticus (CIP 73.30), Halomonas aquamarina (CIP 105454T), Escherichia coli (CIP 54.8T), Aeromonas salmonicida (CIP 103209T), Enteroccocus faecalis (CIP 76.117) and Lactococcus garvieae (CIP 104369) obtained from the “Collection de l’Institut Pasteur”. Bacteria were cultured in adapted media: Homemade marine broth (HMB, sea salts 20 g/L, peptone 5 g/L, yeast extract 3 g/L) for Vibrio species and H. aquamarina; Luria-Bertani (peptone 10 g/L, yeast extract 5 g/L, NaCl 10 g/L) for E. faecalis and E. coli; Trypticasein Soy Broth (TSB, Conda, 40 g/L) for A. salmonicida, and Brain Heart Infusion (BHI) (Conda, 37 g/L) for L. garvieae. MICs were determined in triplicate by liquid growth inhibition assays adapted from Hetru and Bulet. Briefly, 10 µL of peptide solution were incubated in Bioscreen honeycomb-well plates with 90 µl of bacterial suspension at a starting OD600 of 0.001 in BHI for L. garvieae, poor broth (peptone 10 g/L, NaCl 5 g/L) for E. faecalis and E. coli, TSB for A. salmonicida, HMB for H. aquamarina and saline poor broth (peptone 10 g/L, NaCl 15 g/L) for Vibrio species. Bacterial growth was monitored for 16 h by measuring OD600 values every 5 min (Bioscreen C, Labsystem, Finland). The peptides were tested alone at concentrations of 5 µM, 10 µM, 20 µM and 50 µM. For synergy, peptides pairs were tested at concentrations of 5 µM, 10 µM and 20 µM. Oxytetracycline at 5 µM and 10 µM was used as a positive control, and water was used as a blank. MICs were expressed in µM as an [a]–[b] concentration interval where [a] was the last concentration with bacterial growth and [b] was the first concentration with 100% bacterial growth inhibition. MBCs (minimal bactericidal concentrations) were expressed in µM as an [a]–[b] concentration interval where [a] was the last concentration with bacterial growth and [b] was the first concentration that killed 100% of the bacteria.
# [2] = tested on: Enteroccocus faecalis (CIP 76.117); assay: Liquid growth inhibition assay (MIC/MBC); format: cell-based; details: Enterococcus faecalis, CIP76, poor broth, triplicate, interval [a]-[b], '-' = not active
# Experimental: as §1
# [3] = tested on: Lactococcus garvieae (CIP 104369); assay: Liquid growth inhibition assay (MIC/MBC); format: cell-based; details: CIP104369, BHI, triplicate, interval [a]-[b], '-' = not active
# Experimental: as §1
# [4] = tested on: Aeromonas salmonicida (CIP 103209T); assay: Liquid growth inhibition assay (MIC/MBC); format: cell-based; details: TSB, triplicate, interval [a]-[b], '-' = not active
# Experimental: as §1
# [5] = tested on: V. parahaemolyticus (CIP 73.30); assay: microbe, parasite or virus in culture; format: cell-based, Vibrio parahaemolyticus; details: for MIC: read-out: MIC Vibrio parahaemo-lyticus
# Experimental: as §1
# [6] = tested on: V. splendidus (CIP 107715); assay: microbe, parasite or virus in culture; format: cell-based, Vibrio splendidus
# Experimental: as §1
# [7] = tested on: V. aestuerianus (CIP 102971); assay: microbe, parasite or virus in culture; format: cell-based, Vibrio aestueranius; details: for MBC: read-out: MBC Vibrio aestueranius
# Experimental: as §1
# [8] = tested on: V. anguillarum (CIP 64.14); assay: microbe, parasite or virus in culture; format: cell-based, Vibrio anguillarum
# Experimental: as §1
# [9] = tested on: Escherichia coli (CIP 54.8T); assay: microbe, parasite or virus in culture; format: cell-based
# Experimental: as §1
# [10] = tested on: Vibrio alginolyticus (CIP 109819); assay: microbe, parasite or virus in culture; format: cell-based
# Experimental: as §1
# human red blood cells = format: cell-based
# Experimental: The haemolytic activity of the synthetic peptides was determined in triplicate on human red blood cells (RBCs) as described by Duval and collaborators. Briefly, RBCs were pelleted and washed three times in phosphate-buffered saline (PBS). Then, they were resuspended in PBS to obtain a 1% solution of RBC. Ten microliters of peptide solution were incubated with 90 µL of the RBC 1% solution for 1 h at 37 °C. The peptides were diluted in PBS and tested at different concentrations: 5 µM, 20 µM, 50 µM and 100 µM. Haemolytic activity was determined by measuring the OD at 415 nm. Zero haemolysis and total (100%) haemolysis were determined with PBS and 1% Triton X-100 solutions, respectively.
compound,measurement,setting,value
"CN(C)[C@@H]1C(O)=C(C(N)=O)C(=O)[C@@]2(O)C(O)=C3C(=O)c4c(O)cccc4[C@@](C)(O)[C@H]3[C@H](O)[C@@H]12 [Ox, Oxytetracycline]",MIC,[1],> 10 µM
same,MIC,"[2]; starting OD600 0.001, 16 h",≤ 5 µM
same,MBC,[2],5 to 10 µM
same,MIC,"[3]; starting OD600 0.001, 16 h",≤ 5 µM
same,MBC,[3],> 10 µM
same,MIC,"[4]; starting OD600 0.001, 16 h",≤ 5 µM
same,MBC,[4],≤ 5 µM
same,MIC,"[5]; Vibrio parahaemolyticus, CIP73, saline poor broth, starting OD600 0.001, 16 h, triplicate, interval [a]-[b], '-' = not active",≤ 5 µM
same,MBC,"[5]; Vibrio parahaemolyticus, CIP73, saline poor broth, triplicate, interval [a]-[b], '-' = not active, read-out: MBC Vibrio parahaemo-lyticus",≤ 5 µM
same,MIC,"[5]; saline poor broth, starting OD600 0.001, 16 h, triplicate, interval [a]-[b], '-' = not active",≤5 µM
same,MIC,"[6]; Vibrio splendidus, CIP107715, saline poor broth, starting OD600 0.001, 16 h, triplicate, interval [a]-[b], '-' = not active",≤ 5 µM
same,MBC,"[6]; Vibrio splendidus, CIP107715, saline poor broth, triplicate, interval [a]-[b], '-' = not active",≤ 5 µM
same,MIC,"[6]; saline poor broth, starting OD600 0.001, 16 h, triplicate, interval [a]-[b], '-' = not active, read-out: MIC Vibrio splendidus",≤5 µM
same,MIC,"[7]; Vibrio, CIP102971, saline poor broth, starting OD600 0.001, 16 h, triplicate, interval [a]-[b], '-' = not active, read-out: MIC Vibrio aestueranius",≤ 5 µM
same,MBC,"[7]; Vibrio, CIP102971, saline poor broth, triplicate, interval [a]-[b], '-' = not active",≤ 5 µM
same,MIC,"[8]; Vibrio anguillarum, CIP64, saline poor broth, starting OD600 0.001, 16 h, triplicate, interval [a]-[b], '-' = not active",≤ 5 µM
same,MBC,"[8]; Vibrio anguillarum, CIP64, saline poor broth, triplicate, interval [a]-[b], '-' = not active",≤ 5 µM
same,MIC,"[9]; Escherichia coli, CIP54, poor broth, starting OD600 0.001, 16 h, triplicate, interval [a]-[b], '-' = not active",≤ 5 µM
same,MBC,"[9]; Escherichia coli, CIP54, poor broth, triplicate, interval [a]-[b], '-' = not active",≤ 5 µM
same,MIC,"[10]; Vibrio alginolyticus, CIP109819, saline poor broth, starting OD600 0.001, growth monitored 16 h, triplicate, interval [a]-[b], b = first concentration with 100% growth inhibition, peptides 5-50 µM, pairs 5-20 µM, oxytetracycline 5 and 10 µM, '-' = not active",≤ 5 µM
same,MBC,"[10]; Vibrio alginolyticus, CIP109819, saline poor broth, triplicate, interval [a]-[b], b = first concentration that killed 100% of the bacteria, '-' = not active",≤ 5 µM
same,MIC,"[10]; saline poor broth, starting OD600 0.001, growth monitored 16 h, triplicate, interval [a]-[b], b = first concentration with 100% growth inhibition, peptides 5-50 µM, pairs 5-20 µM, oxytetracycline 5 and 10 µM, '-' = not active",≤5 µM
ASSFLTPRLSSLGKRSWAV [AV19],concentrations at which haemolytic,human red blood cells,50 to 100 µM
same,MBC Vibrio parahaemo-lyticus,"[5]; CIP 73, 16 h",20 to 50 µM
same,MIC Vibrio parahaemo-lyticus,"[5]; CIP 73, 16 h",10 to 20 µM
same,MBC Vibrio splendidus,"[6]; CIP 107715, 16 h",10 to 20 µM
same,MIC Vibrio splendidus,"[6]; CIP 107715, 16 h",10 to 20 µM
GFCNFMHLKPISRELRRELYGRTRRRRK [GK28],MBC Vibrio parahaemo-lyticus,"[5]; CIP 73, 16 h",10 to 20 µM
same,MIC,"[5]; CIP 73, 16 h",≤5 µM
same,MBC,"[6]; CIP 107715, 16 h, read-out: MBC Vibrio splendidus",≤5 µM
same,MIC,"[6]; CIP 107715, 16 h, read-out: MIC Vibrio splendidus",≤5 µM
same,MIC Vibrio aestueranius,"[7]; CIP 102971, 16 h",10 to 20 µM
same,MBC,"[7]; CIP 102971, 16 h",>50 µM
same,MBC Vibrio anguillarum,"[8]; CIP 64, 16 h",20 to 50 µM
same,MIC Vibrio anguillarum,"[8]; CIP 64, 16 h",10 to 20 µM
same,MBC Escherichia coli,"[9]; CIP 54, 16 h",20 to 50 µM
same,MIC,"[9]; CIP 54, 16 h",≤5 µM
same,MIC,"[10]; CIP 109819, 16 h",≤5 µM
same,MBC Vibrio alginolyticus,"[10]; saline poor broth, triplicate, interval [a]-[b], b = first concentration that killed 100% of the bacteria, '-' = not active",20 to 50 µM
NYWLLVLRRLLITKKVMWF [NF19],concentrations at which haemolytic,human red blood cells,50 to 100 µM
same,MBC Vibrio splendidus,"[6]; CIP 107715, 16 h",10 to 20 µM
same,MIC Vibrio splendidus,"[6]; CIP 107715, 16 h",5 to 10 µM
